Biological target: MsmK (Streptococcus suis, UniProt A0A0H3N1P0)
Conditions: 1 mM ATP, 10 mM MgCl2, 200 mM KCl, 50 mM PIPES/NaOH pH 6.8, 1 mM β-mercaptoethanol, 30°C, 1 h; labelled compound

MsmK, sequence (A0A0H3N1P0 entry or part of it): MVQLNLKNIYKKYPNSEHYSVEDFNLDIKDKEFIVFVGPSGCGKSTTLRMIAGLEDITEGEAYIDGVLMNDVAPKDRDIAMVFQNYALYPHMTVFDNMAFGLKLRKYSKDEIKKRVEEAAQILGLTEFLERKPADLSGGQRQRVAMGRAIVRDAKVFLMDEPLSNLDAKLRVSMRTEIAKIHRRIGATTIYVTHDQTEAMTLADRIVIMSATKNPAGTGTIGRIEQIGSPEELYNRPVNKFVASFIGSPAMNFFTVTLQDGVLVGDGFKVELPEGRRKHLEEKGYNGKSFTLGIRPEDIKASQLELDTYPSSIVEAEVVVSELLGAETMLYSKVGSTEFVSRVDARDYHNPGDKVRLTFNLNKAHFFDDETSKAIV

Nc1ncnc2c1ncn2[C@@H]1O[C@H](COP(=O)(O)OP(=O)(O)OP(=O)(O)O)[C@@H](O)[C@H]1O [ATP]
radiometric TLC of ADP formed from [α-32P]-ATP: ATPase assays showed that the recombinant protein could hydrolyze ATP to ADP
